Laboratory results published in patent US9981940B2, “Aryl sulfide derivatives and aryl sulfoxide derivatives as acaricides and insecticides” (BAYER CROPSCIENCE AKTIENGESELLSCHAFT, priority 2013, dated 2018).

Legend:
[1] = test system: Boophilus microplus; assay: Boophilus microplus injection test (BOOPMI Inj); assay type: in vivo; conditions: application rate of 20 μg/animal, assessed after 7 days by laying of fertile eggs
Procedure: Use Examples Boophilus microplus Injection Test (BOOPMI Inj) • Solvent: dimethyl sulphoxide
To prepare an appropriate active ingredient formulation, 10 mg of active ingredient are mixed with 0.5 ml of solvent and the concentrate is diluted with solvent to the desired concentration.
1 μl of the active ingredient solution is injected into the abdomen of 5 engorged adult female cattle ticks (Boophilus microplus). The animals are transferred into dishes and kept in a climate-controlled room.
The efficacy is assessed after 7 days by laying of fertile eggs. Eggs which are not visibly fertile are stored in a climate-controlled cabinet until the larvae hatch after about 42 days.
An efficacy of 100% means that none of the ticks has laid any fertile eggs; 0% means that all the eggs are fertile.

[2] = test system: Tetranychus urticae; assay: Tetranychus urticae spray test, OP-resistant (TETRUR); assay type: in vivo; conditions: application rate of 500 g/ha, after 6 days; for pest or weed control at 500 g/ha: Tetranychus urticae, 144 h, read-out: efficacy
Outline: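 Bean leaf discs infested with all stages of an OP-resistant Tetranychus urticae strain sprayed with compound in acetone/DMF with alkylaryl polyglycol ether emulsifier, diluted in water. Efficacy in % scored after 6 days; 100% means all mites killed.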

[3] = log P by HPLC (OECD Guideline 117), method [a] acidic range; assay type: physicochemical; conditions: for logP[a]: method [a] acidic range; for chromatographic logP: reversed-phase C18 HPLC column
Procedure: (§1) The log P values were determined analogously to OECD Guideline 117 (EC Directive 92/69/EEC) by HPLC (high-performance liquid chromatography) using reversed-phase columns (C 18), by the following methods:
[a] The LC-MS determination in the acidic range is effected at pH 2.7 with 0.1% aqueous formic acid and acetonitrile (contains 0.1% formic acid) as eluents; linear gradient from 10% acetonitrile to 95% acetonitrile.

[4] = log P by HPLC (OECD Guideline 117), method [b] neutral range; assay type: physicochemical; conditions: HPLC; for logP[b]: method [b] neutral range; for chromatographic logP: reversed-phase C18 HPLC column
Procedure: as §1
[b] The LC-MS determination in the neutral range is effected at pH 7.8 with 0.001 molar aqueous ammonium hydrogencarbonate solution and acetonitrile as eluents; linear gradient from 10% acetonitrile to 95% acetonitrile.

[5] = pH 2.7, HPLC method [a], acidic range, read-out: logP[a]
[6] = pH 2.7, HPLC, acidic range, pH 2.7, read-out: log P[a]

Structure (SMILES) | efficacy [2] | logP[a] ([3]; HPLC) | logP[b] [4] | also measured
CCn1c([S+]([O-])CC)nn(-c2cc(SCC(F)(F)F)c(C)cc2F)c1=O (centres unmarked) [Example 253] | 100% | 2.84 | 2.81 | efficacy [1]: 100%
CCn1c(OCC(F)(F)F)nn(-c2cc([S+]([O-])CC(F)(F)F)c(C)cc2F)c1=O (centres unmarked) [Example 406] | 90% | 2.82 | 2.78 | efficacy [1]: 100%
COc1cc(F)c(-n2nc(OCC(F)(F)F)n(C3CC3)c2=O)cc1[S+]([O-])CC(F)(F)F (racemic) [Example 385] | – | 2.80 | 2.74 | efficacy [1]: 100%
Cc1cc(C)c([S+]([O-])CC(F)(F)F)cc1-n1nc(OCC(F)(F)F)n(C2CC2)c1=O (racemic) [Example 381] | 90% | 2.88 | 2.94 | efficacy [1]: 100%
Cc1ccc(-n2nc(OCC(F)(F)F)n(C3CC3)c2=O)cc1SCC(F)(F)F [Example 92] | 100% | 4.29 | 4.20 | efficacy [1]: 100%
COCc1nn(-c2cc([S+]([O-])CC(F)(F)F)c(C)cc2F)c(=O)n1C1CC1 (centres unmarked) [Example 45] | 100% | 1.99 | 1.96 | efficacy [1]: 100%
Cc1cc(F)c(-n2nc([S+]([O-])Cc3ccccc3)n(C)c2=O)cc1[S+]([O-])CC(F)(F)F (centres unmarked) [Example 250] | 100% | 2.34 | 2.29 | –
CCCCOc1nn(-c2cc(SCC(F)(F)F)c(C)cc2F)c(=O)n1C1CC1 [Example 125] | 90% | 4.41 | 4.35 | –
C=CCn1c(OCC(F)(F)F)nn(-c2cc(SCC(F)(F)F)c(C)cc2F)c1=O [Example 399] | 90% | 3.94 | 3.89 | –
Cc1cc(F)c(-n2nc(C3CC3)n(C(C)C)c2=O)cc1[S+]([O-])CC(F)(F)F (racemic) [Example 353] | 100% | 2.58 | 2.55 | –
C=CCn1c(SCC)nn(-c2cc([S+]([O-])CC(F)(F)F)c(C)cc2F)c1=O (centres unmarked) [Example 431] | 90% | 2.83 | 2.92 | –
CC1=C(C)C(=O)N(c2cc(SCC(F)(F)F)c(C)cc2C)C1=O [Example 342] | 90% | 3.73 | 3.70 | log P[a] ([3]; HPLC, acidic range, pH 2.7): 2.07; log P[b] ([4]; neutral range, pH 7.8): 3.67
Cc1cc(C)c(-n2nc(C(F)(F)F)n(C(C)(C)C)c2=O)cc1SCC(F)(F)F [Example 49] | 90% | 4.95 | 4.88 | –
CCn1ccn(-c2cc([S+]([O-])CC(F)(F)F)c(C)cc2F)c1=O (centres unmarked) [Example 487, 1-Ethyl-3-{2-fluoro-4-methyl-5-[(2,2,2-trifluoroethyl)sulphinyl]phenyl}-1,3-dihydro-2H-imidazol-2-one] | – | – | – | pest or weed control at 500 g/ha [2]: 90%; chromatographic logP [3, 5]: 1.83; chromatographic logP [3, 6]: 1.83; chromatographic logP ([4]; neutral range, pH 7.8): 1.81
CCSc1nn(-c2cc([S+]([O-])CC(F)(F)F)c(C)cc2F)c(=O)n1C1CC1 (centres unmarked) [Example 262] | 100% | 2.81 | 2.76 | –
Cc1cc(F)c(-n2nc(N(C)C)n(C3CC3)c2=O)cc1SCC(F)(F)F [Example 193] | 100% | 3.20 | 3.15 | –
CCCCn1c(C(F)(F)F)nn(-c2cc([S+]([O-])CC(F)(F)F)c(C)cc2F)c1=O (centres unmarked) [Example 365] | 100% | 3.61 | 3.54 | –
O=c1n(-c2ccc(Br)c(SCC(F)(F)F)c2)nc(OCC(F)(F)F)n1C1CC1 [Example 378] | 90% | 4.43 | 4.48 | –
CCOc1nn(-c2cc(SCC(F)(F)F)c(C)cc2F)c(=O)n1CC [Example 401] | 100% | 3.62 | 3.53 | –
CCSc1nn(-c2cc([S+]([O-])CC(F)(F)F)c(C)cc2F)c(=O)n1C (centres unmarked) [Example 274, 5-(Ethylsulphanyl)-2-{2-fluoro-4-methyl-5-[(2,2,2-trifluoroethyl)sulphinyl]phenyl}-4-methyl-2,4-dihydro-3H-1,2,4-triazol-3-one] | – | – | – | pest or weed control at 500 g/ha [2]: 100%; chromatographic logP [3, 5]: 2.42; chromatographic logP [3, 6]: 2.42; chromatographic logP ([4]; neutral range, pH 7.8): 2.36

Structure (SMILES) | efficacy [2] | logP[a] ([3]; HPLC) | logP[b] [4] | also measured
Cc1nn(-c2cc(SCC(F)(F)F)c(C)cc2F)c(=O)o1 [Example 448, 3-{2-Fluoro-4-methyl-5-[(2,2,2-trifluoroethyl)sulphanyl]phenyl}-5-methyl-1,3,4-oxadiazol-2(3H)-one] | – | – | – | pest or weed control at 500 g/ha [2]: 100%; chromatographic logP [3, 5]: 3.11; chromatographic logP [3, 6]: 3.11; chromatographic logP ([4]; neutral range, pH 7.8): 3.09
Cc1cc(F)c(-n2nc(C3CC3)oc2=O)cc1SCC(F)(F)F [Example 456] | 100% | 3.62 | 3.55 | –
COC1=CC(=O)N(c2cc(SCC(F)(F)F)c(C)cc2C)C1 [Example 312] | 90% | 2.88 | 2.81 | –
CNn1c(N(C)C)nn(-c2cc(SCC(F)(F)F)c(C)cc2F)c1=O [Example 216] | 100% | 3.03 | 2.99 | –
Cc1cc(F)c(-n2nc(C(F)(F)F)n(C(C)C)c2=O)cc1[S+]([O-])CC(F)(F)F (centres unmarked) [Example 363] | 100% | 3.22 | 3.18 | –
O=c1n(-c2cc([S+]([O-])CC(F)(F)F)c(Br)cc2F)nc(OCC(F)(F)F)n1C1CC1 (racemic) [Example 383] | 100% | 3.27 | 3.26 | –
CCn1c(C(F)(F)F)nn(-c2ccc(C)c(SCC(F)(F)F)c2)c1=O [Example 54] | 90% | 4.38 | 4.32 | –
Cc1ccc(-n2nc(C(F)(F)F)n(N)c2=O)cc1SCC(F)(F)F [Example 212] | 90% | 3.38 | 3.37 | –
C=CCSc1nn(-c2cc(SCC(F)(F)F)c(C)cc2F)c(=O)n1C [Example 290] | 100% | 3.62 | 3.56 | –
CC(C)(C)COc1nn(-c2cc([S+]([O-])CC(F)(F)F)c(Cl)cc2Cl)c(=O)n1C1CC1 (centres unmarked) [Example 405] | 90% | 4.36 | 4.18 | –
COCCc1nn(-c2cc([S+]([O-])CC(F)(F)F)c(C)cc2F)c(=O)n1C1CC1 (racemic) [Example 76] | 100% | 2.03 | 1.97 | –
Cc1cc(F)c(-n2nc(OCC(C)C)n(C)c2=O)cc1[S+]([O-])CC(F)(F)F (centres unmarked) [Example 152] | 90% | 2.90 | 2.83 | –
CC[S+]([O-])c1nn(-c2cc([S+]([O-])CC(F)(F)F)c(C)cc2F)c(=O)n1C1CC1 (centres unmarked) [Example 235] | 100% | 1.85 | 1.80 | –
Cc1cc(F)c(-n2ncn(C(C)(C)C)c2=O)cc1[S+]([O-])CC(F)(F)F (centres unmarked) [Example 369] | 100% | 2.21 | 2.16 | –
Cc1cc(F)c(-n2nc(N(C)C)n(C)c2=O)cc1[S+]([O-])CC(F)(F)F (racemic) [Example 191] | 90% | 1.86 | 1.84 | –
Cc1cc(F)c(-n2nc(SCC(F)F)n(C)c2=O)cc1[S+]([O-])CC(F)(F)F (racemic) [Example 289] | 100% | 3.30 | 3.25 | –
Cc1cc(F)c(-n2c(C)c(C)sc2=NCC(F)(F)F)cc1SCC(F)(F)F [Example 343, 2,2,2-Trifluoro-N-[3-{2-fluoro-4-methyl-5-[(2,2,2-trifluoroethyl)sulphanyl]phenyl}-4,5-dimethyl-1,3-thiazol-2(3H)-ylidene]ethanamine] | – | – | – | pest or weed control at 500 g/ha [2]: 100%; chromatographic logP [3, 5]: 3.02; chromatographic logP [3, 6]: 3.02; chromatographic logP ([4]; neutral range, pH 7.8): 4.91
Cc1cc(C)c(-n2ncn(C(C)(C)C)c2=O)cc1SCC(F)(F)F [Example 371] | 100% | 3.46 | 3.39 | –
Cc1cc(F)c(-n2nc(C3CC3)n(C(C)C)c2=O)cc1SCC(F)(F)F [Example 347] | 100% | 3.70 | 3.63 | –
Cc1cc(F)c(-n2nc(C3CC3)n(N)c2=O)cc1[S+]([O-])CC(F)(F)F (centres unmarked) [Example 206] | 100% | 1.75 | 1.72 | –
